Data reported in EP0441832B1, “COMPOSITION AND TREATMENT WITH BIOLOGICALLY ACTIVE PEPTIDES AND CERTAIN ANIONS” (THE CHILDREN'S HOSPITAL OF PHILADELPHIA, priority 1988, dated 1990).
Like-named read-outs stand apart in the source and are kept apart here. Ends that are not written are not given here.

Assays:
Type in all cases: cell-based
ENTEROBACTER CLOACAE = test system: ENTEROBACTER CLOACAE
Description: (§1) Approximately 1,000 bacteria were seeded into about 200 ul of trypticase soy broth. Either magainin 2 carboxy terminal amide, PGLa, or ALSKALSK ALSKALSKALSKALSK (Z-44) were added in increasing concentrations in the absence (Panel A) or presence (Panel B) of 50 mM NaF.

PSEUDOMONAS AERUGINOSA = details: Panel A: Absence of NaF; approx. 1,000 bacteria in about 200 ul trypticase soy broth
Description: as §1

E. cloacae = test: Killing of bacteria: 15 min incubation in trypticase soy broth, then plating for viable organisms
Description: If 10⁷ E. cloacae organisms are inoculated into 1 ml of TSB in the presence of 60 ug/ml of MGN2, about 10⁶ bacteria are found to be viable on plating. […] The effective killing power of this antibiotic at a given concentration has been potentiated over 1 million-fold by the addition of fluoride.
LEGEND: Organisms were incubated in a volume of 1 ml in either trypticase soy broth alone or containing substances noted for 15 min at 37 °C. An aliquot was then diluted and plated to determine number of viable organisms.

[1] = peptide 60ug/ml + NaF 25 mM, 10⁷ organisms in 1 ml TSB, 15 min at 37 C

Row | Substance | MINIMAL INHIBITORY CONCENTRATION (ENTEROBACTER CLOACAE) | MINIMAL INHIBITORY CONCENTRATION (ENTEROBACTER CLOACAE; Panel A: Absence of NaF, approx. 1,000 bacteria in about 200 ul trypticase soy broth, listed as MGN2 (Magainin II)) | MINIMAL INHIBITORY CONCENTRATION (PSEUDOMONAS AERUGINOSA) | bacteria viable on plating (E. cloacae; 60 ug/ml peptide + 50 mM NaF, 10⁷ organisms in 1 ml TSB) | potentiation of effective killing power by the addition of fluoride (E. cloacae; 60 ug/ml peptide, with vs without NaF) | CFU (E. cloacae; [1]) | EOP (% viable) (E. cloacae; [1]) | EOP (% viable) (E. cloacae; peptide 60ug/ml alone, 10⁷ organisms in 1 ml TSB, 15 min at 37 C) | EOP (% viable) (E. cloacae; NaF 25mM alone, 10⁷ organisms in 1 ml TSB, 15 min at 37 C)
1 | GIGKFLHSAKKFGKAFVGEIMNS-NH2 [MGN2] | exceeded 500 ug/ml | MGN2 (Magainin II) >500 ug/ml | MGN 2 250-500 ug/ml | all bacteria are killed | over 1 million | 0 | 0% | 90% | –
2 | sodium fluoride [NaF] | – | – | – | – | – | – | – | – | 100%
